Reference: patent publication US12606541B2, “PPARg modulators and methods of use” (Eisai R&D Management Co., Ltd., priority 2020, dated 2026)

Molecular target: T1, His6-TEV-PPARγ-(234-505) (Homo sapiens, UniProt P37231)
T1 construct: The His6-TEV-PPARγ-(234-505) protein for assay was expressed and purified; TEV cleavage site (N); made in house
T1 sequence (P37231 234-505): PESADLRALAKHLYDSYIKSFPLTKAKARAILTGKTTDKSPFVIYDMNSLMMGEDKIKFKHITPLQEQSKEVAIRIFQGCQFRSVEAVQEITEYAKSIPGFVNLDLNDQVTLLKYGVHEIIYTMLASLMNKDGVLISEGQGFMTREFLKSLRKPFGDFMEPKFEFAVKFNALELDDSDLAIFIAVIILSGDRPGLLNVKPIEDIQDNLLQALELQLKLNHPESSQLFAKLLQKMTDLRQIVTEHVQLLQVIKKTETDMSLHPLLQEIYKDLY
Assay: TR-FRET Assay to Measure Co-R Peptide Recruitment to PPARγ
Assay type: biochemical
Details: Co-R peptide recruitment to PPARγ; read-out: TR-FRET AC50
Procedure, shortened: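 Corepressor recruitment is measured by adding terbium-labeled anti-His antibody and FITC SMRT-ID2 peptide, at 5 and 200 nM final, after a 20-minute room-temperature protein–compound incubation. After one further hour, signal is converted to percent response between DMSO and 500 nM T0070907 wells.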

AC50, > 1 µM:
COc1ccc(NC(=O)C2CCN(C(=O)c3cc(-c4ccncc4)[nH]n3)CC2)c(C)c1 [N-(4-methoxy-2-methylphenyl)-1-[5-(pyridin-4-yl)-1H-pyrazole-3-carbonyl]piperidine-4-carboxamide]
COc1cc(-c2cc(C(=O)N3CCC(C(=O)NC4CC[C@H]5[C@H](CCN5C)C4)CC34CC4)n[nH]2)c(F)cn1 (relative stereo) [(7R*)—N-[(3aR,7aS)-1-methyl-octahydro-1H-indol-5-yl]-4-[5-(5-fluoro-2-methoxypyridin-4-yl)-1H-pyrazole-3-carbonyl]-4-azaspiro[2.5]octane-7-carboxamide]
CCOc1cc(-c2cc(C(=O)N3CCC(C(=O)N[C@H]4CC[C@@](OC)(C(F)(F)F)CC4)CC34CC4)n[nH]2)c(F)cn1 (single isomer, unassigned)
COc1cc(-c2cc(C(=O)N3CCC(C(=O)NCc4ncccn4)CC3)n[nH]2)c(Cl)cn1 [1-[5-(5-chloro-2-methoxypyridin-4-yl)-1H-pyrazole-3-carbonyl]-N-[(pyrimidin-2-yl)methyl]piperidine-4-carboxamide]
O=C(NCc1ccccc1)C1CCN(C(=O)c2cc(-c3ccncc3)[nH]n2)CC1 [N-benzyl-1-[5-(pyridin-4-yl)-1H-pyrazole-3-carbonyl]piperidine-4-carboxamide]
O=C(NCc1ccc2c(c1)OCO2)C1CCN(C(=O)c2cc(-c3ccncc3)[nH]n2)CC1 [N-[(2H-1,3-benzodioxol-5-yl)methyl]-1-[5-(pyridin-4-yl)-1H-pyrazole-3-carbonyl]piperidine-4-carboxamide]
COc1cc(-c2cc(C(=O)N3CCC(C(=O)NC4CCC(C)(C)CC4)CC3)n[nH]2)ccn1 [N-(4,4-dimethylcyclohexyl)-1-[5-(2-methoxypyridin-4-yl)-1H-pyrazole-3-carbonyl]piperidine-4-carboxamide]
COc1cc(-c2cc(C(=O)N3CCC(C(=O)N[C@H]4CC[C@](O)(C(F)(F)F)CC4)CC3)n[nH]2)c(Cl)cn1
COc1cc(-c2cc(C(=O)N3CCC(C(=O)NC45CCC(C)(C4)OC5)CC3)n[nH]2)c(Cl)cn1 (stereo not shown) [1-[5-(5-chloro-2-methoxypyridin-4-yl)-1H-pyrazole-3-carbonyl]-N-{1-methyl-2-oxabicyclo[2.2.1]heptan-4-yl}piperidine-4-carboxamide]
COc1cc(-c2cc(C(=O)N3CCC(C(=O)NCC4(C)OCCO4)CC3)n[nH]2)c(Cl)cn1 [1-[5-(5-chloro-2-methoxypyridin-4-yl)-1H-pyrazole-3-carbonyl]-N-[(2-methyl-1,3-dioxolan-2-yl)methyl]piperidine-4-carboxamide]
COc1nccc(-c2cc(C(=O)N3CCC(C(=O)NC4CCC(C)CC4)CC3)n[nH]2)c1C (stereo not shown) [1-[5-(2-methoxy-3-methylpyridin-4-yl)-1H-pyrazole-3-carbonyl]-N-(4-methylcyclohexyl)piperidine-4-carboxamide]
COc1cc(-c2cc(C(=O)N3CCC(C(=O)NCc4ccc5ncnn5c4)CC3)n[nH]2)c(Cl)cn1 [1-[5-(5-chloro-2-methoxypyridin-4-yl)-1H-pyrazole-3-carbonyl]-N-({[1,2,4]triazolo[1,5-a]pyridin-6-yl}methyl)piperidine-4-carboxamide]
CC1CCC(NC(=O)C2CCN(C(=O)c3cc(-c4ccncn4)[nH]n3)CC2)CC1 (stereo not shown) [N-(4-methylcyclohexyl)-1-[5-(pyrimidin-4-yl)-1H-pyrazole-3-carbonyl]piperidine-4-carboxamide]
COc1cc(-c2cc(C(=O)N3CCC(C(=O)NC4CC4C(F)(F)F)CC3)n[nH]2)c(Cl)cn1 (stereo not shown) [1-[5-(5-chloro-2-methoxypyridin-4-yl)-1H-pyrazole-3-carbonyl]-N-[2-(trifluoromethyl)cyclopropyl]piperidine-4-carboxamide]
COc1cc(-c2cc(C(=O)N3CCC(C(=O)NCc4cccnn4)CC3)n[nH]2)c(Cl)cn1 [1-[5-(5-chloro-2-methoxypyridin-4-yl)-1H-pyrazole-3-carbonyl]-N-[(pyridazin-3-yl)methyl]piperidine-4-carboxamide]
COc1cc(-c2cc(C(=O)N3CCC(C(=O)Nc4ccc(CS(C)(=O)=O)cc4)CC3)n[nH]2)c(Cl)cn1 [1-[5-(5-chloro-2-methoxypyridin-4-yl)-1H-pyrazole-3-carbonyl]-N-[4-(methanesulfonylmethyl)phenyl]piperidine-4-carboxamide]
CC(C)(C)c1ccc(CNC(=O)C2CCN(C(=O)c3cc(-c4ccncc4)[nH]n3)CC2)cc1 [N-[(4-tert-butylphenyl)methyl]-1-[5-(pyridin-4-yl)-1H-pyrazole-3-carbonyl]piperidine-4-carboxamide]
O=C(c1cc(-c2ccncc2)[nH]n1)N1CCC(C(=O)N2CCOCC2)CC1 [4-{1-[5-(pyridin-4-yl)-1H-pyrazole-3-carbonyl]piperidine-4-carbonyl}morpholine]
O=C(Nc1ccc2c(c1)OCCO2)C1CCCN(C(=O)c2cc(-c3ccncc3)[nH]n2)C1 (stereo not shown) [N-(2,3-dihydro-1,4-benzodioxin-6-yl)-1-[5-(pyridin-4-yl)-1H-pyrazole-3-carbonyl]piperidine-3-carboxamide]
COc1cc(-c2cc(C(=O)N3CC[C@@H](C(=O)NC4CCS(=N)(=O)CC4)CC34CC4)n[nH]2)c(F)cn1 (stereo partly drawn) [(7R)-4-[5-(5-fluoro-2-methoxypyridin-4-yl)-1H-pyrazole-3-carbonyl]-N-(1-imino-1-oxo-1λ^6-thian-4-yl)-4-azaspiro[2.5]octane-7-carboxamide]
COc1cc(-c2cc(C(=O)N3CCC(C(=O)NC45CC(C4)C5)CC3)n[nH]2)c(Cl)cn1 [N-{bicyclo[1.1.1]pentan-1-yl}-1-[5-(5-chloro-2-methoxypyridin-4-yl)-1H-pyrazole-3-carbonyl]piperidine-4-carboxamide]
CC1CCN(C(=O)C2CCN(C(=O)c3cc(-c4ccncc4)[nH]n3)CC2)CC1 [4-{3-[4-(4-methylpiperidine-1-carbonyl)piperidine-1-carbonyl]-1H-pyrazol-5-yl}pyridine]
COc1cc(-c2cc(C(=O)N3CC[C@H](C(=O)NC4CCS(=N)(=O)CC4)CC34CC4)n[nH]2)c(F)cn1 (stereo partly shown)
CN1CCN(C(=O)C2CCN(C(=O)c3cc(-c4ccncc4)[nH]n3)CC2)CC1
COc1cccc(CNC(=O)C2CCN(C(=O)c3cc(-c4ccncc4)[nH]n3)CC2)c1OC [N-[(2,3-dimethoxyphenyl)methyl]-1-[5-(pyridin-4-yl)-1H-pyrazole-3-carbonyl]piperidine-4-carboxamide]
COc1cc(-c2cc(C(=O)N3CCC(C(=O)NC(C)(C)c4ccccc4)CC3)n[nH]2)c(Cl)cn1 [1-[5-(5-chloro-2-methoxypyridin-4-yl)-1H-pyrazole-3-carbonyl]-N-(2-phenylpropan-2-yl)piperidine-4-carboxamide]
CN(Cc1ccc(C(C)(C)C)cc1)C(=O)C1CCN(C(=O)c2cc(-c3ccncc3)[nH]n2)CC1 [N-[(4-tert-butylphenyl)methyl]-N-methyl-1-[5-(pyridin-4-yl)-1H-pyrazole-3-carbonyl]piperidine-4-carboxamide]
COc1cc(-c2cc(C(=O)N3CCC(C(=O)NCc4cc(C)ccn4)CC3)n[nH]2)c(Cl)cn1 [1-[5-(5-chloro-2-methoxypyridin-4-yl)-1H-pyrazole-3-carbonyl]-N-[(4-methylpyridine-2-yl)methyl]piperidine-4-carboxamide]
COc1cc(-c2cc(C(=O)N3CCC(C(=O)NCC4CCOCO4)CC3)n[nH]2)c(Cl)cn1 (stereo not shown) [1-[5-(5-chloro-2-methoxypyridin-4-yl)-1H-pyrazole-3-carbonyl]-N-[(1,3-dioxan-4-yl)methyl]piperidine-4-carboxamide]
COc1cc(-c2cc(C(=O)N3CCC(C(=O)NC4COCOC4)CC3)n[nH]2)c(Cl)cn1 [1-[5-(5-chloro-2-methoxypyridin-4-yl)-1H-pyrazole-3-carbonyl]-N-(1,3-dioxan-5-yl)piperidine-4-carboxamide]
O=C(NC1CCC(c2ccccc2)CC1)C1CCN(C(=O)c2cc(-c3ccncc3)[nH]n2)CC1 (stereo not shown) [N-(4-phenylcyclohexyl)-1-[5-(pyridin-4-yl)-1H-pyrazole-3-carbonyl]piperidine-4-carboxamide]
COc1cc(-c2cc(C(=O)N3CCC(C(=O)NCC4CCCOC4)CC3)n[nH]2)c(Cl)cn1 (stereo not shown) [1-[5-(5-chloro-2-methoxypyridin-4-yl)-1H-pyrazole-3-carbonyl]-N-[(oxan-3-yl)methyl]piperidine-4-carboxamide]
COc1cc(-c2cc(C(=O)N3CCC(C(=O)NC4(C)CC(F)(F)C4)CC3)n[nH]2)c(Cl)cn1 [1-[5-(5-chloro-2-methoxypyridin-4-yl)-1H-pyrazole-3-carbonyl]-N-(3,3-difluoro-1-methylcyclobutyl)piperidine-4-carboxamide]
CCOc1cc(-c2cc(C(=O)N3CCC(C(=O)N[C@H]4CC[C@@](O)(C(F)(F)F)CC4)CC34CC4)n[nH]2)c(F)cn1 (single isomer, unassigned)
